Patent US7928106B2, “Aza-pyridopyrimidinone derivatives” (Hoffmann-La Roche Inc., priority 2007, dated 2011)

Target: T1, HM74A receptor (Homo sapiens, UniProt Q8TDS4)
T1 construct: expressed in transfected cells; host or cells: HEK-293 cells (stably transfected), membrane preparation
Assay: Primary radiolabelled ligand competition binding assay ([3H]-nicotinic acid)
Details: inhibition of [3H]-nicotinic acid binding, membranes of HEK-293 cells stably transfected with the HM74A receptor
Procedure: Primary Radiolabelled Ligand Competition Binding Assay
Nicotinic acid binding assays were performed with membrane preparations. A cell pellet containing 1×10^8 HEK-293 cells, stably transfected with the HM74A receptor, was resuspended in 3 ml of ice cold Dounce Buffer (10 mM Tris-Cl pH 7.6, 0.5 mM MgCl2) supplemented with Roche protease inhibitor cocktail and homogenized at high speed on a Polytron homogenizer two times for 20 sec on ice. Nuclei and unbroken cells were removed by centrifugation for 5 min at 1,000×g after the addition of 1 ml of tonicity restoration buffer (10 mM Tris pH 7.6, 0.5 mM MgCl2, 600 mM NaCl). The homogenate was centrifuged at 60,000×g for 30 min and pellets were resuspended in Tris buffer (50 mM Tris pH 7.4, containing protease inhibitors). Binding reactions contained 20 µg membranes as determined by BCA protein assay (Pierce), 50 nM [^3H]-nicotinic acid (Amersham) with or without compound addition in 250 μl of binding buffer (50 mM Tris pH 7.4, 2 mM MgCl2, 0.02% CHAPS). […] Bound [^3H]-nicotinic acid was determined by scintillation counting using Top Count NXT (PerkinElmer). […] The effects of compounds were expressed as % inhibition of [^3H]-nicotinic acid binding. Sigmoidal curves were fitted using the XLfit3 program (ID Business Solutions Ltd. UK) and IC50 values determined.

T1 sequence (Q8TDS4 whole entry): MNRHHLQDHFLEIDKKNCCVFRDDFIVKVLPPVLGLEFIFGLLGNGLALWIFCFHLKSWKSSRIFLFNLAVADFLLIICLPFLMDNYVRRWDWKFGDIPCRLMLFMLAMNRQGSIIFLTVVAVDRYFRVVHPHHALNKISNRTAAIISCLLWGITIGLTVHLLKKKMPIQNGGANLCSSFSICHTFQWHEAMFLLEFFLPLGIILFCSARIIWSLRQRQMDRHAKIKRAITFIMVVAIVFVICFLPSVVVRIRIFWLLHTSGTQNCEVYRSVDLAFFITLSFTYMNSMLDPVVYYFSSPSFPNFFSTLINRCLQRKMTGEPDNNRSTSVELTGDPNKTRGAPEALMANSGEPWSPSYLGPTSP

For `O=c1[nH]c(COCCc2cc(F)ccc2F)nc2nccnc12` [Example 2, 2-[2-(2,5-Difluoro-phenyl)-ethoxymethyl]-3H-pteridin-4-one], the IC50 was 2390 nM.
Work on `O=c1[nH]c(COCCc2cccc(Cl)c2)nc2nnccc12` [Example 7, 7-[2-(3-Chloro-phenyl)-ethoxymethyl]-6H-pyrimido[4,5-c]pyridazin-5-one] yielded an IC50 of 668 nM.
